Drawing on patent US20250214977A1, “STAT6 INHIBITORS AND USES THEREOF” (Kymera Therapeutics, Inc., priority 2024, published 2025), this text covers IC50 for 49 compounds.

For this assay, the system named is Phosphorylation of STAT6 in human A549 cells. The experiment in a line: Phosphorylated STAT6 (pSTAT6) flow cytometry assay in human A549 cells. It counts as cell-based. As to conditions: read-out: STAT6 IL4 pSTAT6 assay in A549 cells: Average IC50. The source says: Example 3. Phosphorylated STAT6 (pSTAT6) Flow Cytometry Assay in Human A549 Cells
Phosphorylation of STAT6 in human A549 cells was quantitatively measured using flow cytometry technology.
On the technique in general: Flow cytometry measures light scatter and fluorescence of single cells or particles in a stream.

Bounds are passed on as bounds.

In the case of `Cc1c[nH]c2ncc(-c3cc(C4=CCCN(C(=O)CCn5ccnn5)C4)cc4cc(C(=O)N(C)C)oc34)cc12` [Example I-1085], the IC50 is < 0.1 µM.
`COc1ccccc1-c1cc(C2=CCCN(C(=O)CCn3ccnn3)C2)c(F)c2[nH]c(C(=O)N3CCN(c4ncccc4F)CC3)cc12` [Example I-361]: the IC50 is < 0.1 µM.
With `COc1ccccc1-c1cc(C2=CCCN(C(=O)CCn3ccnn3)C2)c(F)c2[nH]c(C(=O)N3CCN(C(C)(C)C)CC3)cc12` [Example I-773], the IC50 was < 0.1 µM.
In the case of `CCc1cnccc1-c1cc(C2=CCCN(C(=O)CCn3ccnn3)C2)c(F)c2[nH]c(C(=O)N3CCN(c4ncc(F)cc4OC)CC3)cc12` [Example I-689], the IC50 is < 0.1 µM.
With `COc1ccccc1-c1cc(C2=CCCN(C(=O)CCn3ccnn3)C2)c(F)c2[nH]c(C(=O)N3CCN(c4cn5ccnc5cc4C)CC3)cc12` [Example I-915] the figure was < 0.1 µM.
`COc1ccccc1-c1cc(C2=CCCN(C(=O)CCn3ccnn3)C2)c(F)c2[nH]c(C(=O)N3CCN(c4cccc5nonc45)CC3)cc12` [Example I-951]: the IC50 is < 0.1 µM.
As to `CC(=O)N1CCC=C(c2cc(-c3cccc4c3OCCO4)c3cc(C(=O)N(C)C)[nH]c3c2F)C1` [Example I-1095], the IC50 is < 0.1 µM.
For the compound `CN(C)C(=O)c1cc2cc(C3=CCCN(C(=O)CCn4ccnn4)C3)cc(-c3ccc4[nH]ncc4c3)c2o1` [Example I-1080], the IC50 is < 0.1 µM.
For the compound `COc1ccccc1-c1cc(C2=CCCN(C(=O)CCn3ccnn3)C2)c(F)c2[nH]c(C(=O)N3CCN(c4ccccc4Cl)CC3)cc12` [Example I-423], the IC50 is < 0.1 µM.
With `COc1ccccc1-c1cc(C2=CCCN(C(=O)CCn3ccnn3)C2)c(F)c2[nH]c(C(=O)N3CC=C(c4ncccc4OC)CC3)cc12` [Example I-425] the figure was < 0.1 µM; with `COc1ccccc1-c1cc(C2=CCCN(C(=O)CCn3cccn3)C2)c(F)c2[nH]c(C(=O)N3CCN(c4ncccc4OC4CC4)CC3)cc12` [Example I-345], < 0.1 µM; with `C[C@@H](C(=O)N1CCC=C(c2ccc3cc(C(=O)N(C)C)[nH]c3c2)C1)n1ccccc1=O` [Example I-834], 0.1 to 1 µM.
Turning to `COc1ccccc1-c1cc(C2=CCCN(C(=O)CCn3ccnn3)C2)c(F)c2[nH]c(C(=O)N3CCN(c4ncc(N(C)C)cc4OC)CC3)cc12` [Example I-416], the IC50 is < 0.1 µM.
The same measure for `COc1ccc(-c2cc(C3=CCCN(C(=O)CCn4ccnn4)C3)c(F)c3[nH]c(C(=O)N4CCN(c5ncc(F)cc5OC)CC4)cc23)c(C2CC2)c1` [Example I-641]: < 0.1 µM; for `CC(=O)N1CCC=C(c2cc(-c3ccc(C(F)(F)F)cc3O)c3cc(C(=O)N(C)C)[nH]c3c2F)C1` [Example I-888]: 0.1 to 1 µM; for `CN(C)C(=O)c1cc2cc(C3=CCCN(C(=O)CCn4ccnn4)C3)cc(NC[C@@H]3CCC(=O)N3C)c2o1` [Example I-896]: 0.1 to 1 µM.
Regarding `COc1ccccc1-c1cc(C2=CCCN(C(=O)CCn3ccnn3)C2)c(F)c2[nH]c(C(=O)N3CCN(c4c(C)ccc5c4cnn5C)CC3)cc12` [Example I-928], the IC50 is < 0.1 µM.
The same measure for `CNc1ccc(-c2cc(C3=CCCN(C(=O)C4Cc5c(N)cccc5CN4C=O)C3)cc3cc(C(=O)N(C)C)oc23)c(OC)c1` (stereo not shown) [Example I-1063]: < 0.1 µM; for `COc1cc(F)cnc1N1CCN(C(=O)c2cc3c(-c4ccc(C5CC5)cc4)cc(C4=CCCN(C(=O)CCn5ccnn5)C4)c(F)c3[nH]2)CC1` [Example I-1157]: < 0.1 µM; for `CCOc1ccccc1-c1cc(C2=CCCN(C(=O)CCn3ccnn3)C2)c(F)c2[nH]c(C(=O)N3CCN(c4ncccc4OC)CC3)cc12` [Example I-412]: > 100 µM.
With `COc1ccncc1-c1cc(C2=CCCN(C(=O)CCn3ccnn3)C2)c(F)c2[nH]c(C(=O)N3CCN(c4cc5cc[nH]c5nc4C#N)CC3)cc12` [Example I-485], the IC50 is < 0.1 µM.
For the compound `CN(C)C(=O)c1cc2ccc(C3=CCCN(C(=O)CCc4ccon4)C3)cc2[nH]1` [Example I-831], the IC50 fell in the range of 0.1 to 1 µM.
With `CCc1ccccc1-c1cc(C2=CCCN(C(=O)CCn3ccnn3)C2)c(F)c2[nH]c(C(=O)N3Cc4cnn(C)c4C3)cc12` [Example I-700], the IC50 was 10 to 100 µM.
The same measure for `CCc1cnccc1-c1cc(C2=CCCN(C(=O)CCn3ccnn3)C2)c(F)c2[nH]c(C(=O)N3CCN(c4ncc(OC)cc4OC)CC3)cc12` [Example I-484]: > 100 µM.
For `COc1cc(F)cnc1N1CCN(C(=O)c2cc3c(-c4ccnc(OC(F)F)c4)cc(C4=CCCN(C(=O)CCn5ccnn5)C4)c(F)c3[nH]2)CC1` [Example I-653], the IC50 was < 0.1 µM.
As to `COc1cc(F)cnc1N1CCN(C(=O)c2cc3c(-c4ccc(-c5ccccn5)cc4)cc(C4=CCCN(C(=O)CCn5ccnn5)C4)c(F)c3[nH]2)CC1` [Example I-1120], the IC50 was < 0.1 µM.
In the case of `COc1ccncc1-c1cc(C2CN(C(=O)CCn3ccnn3)CC(F)(F)C2)c(F)c2[nH]c(C(=O)N3CCN(c4ncc(F)cc4OC)CC3)cc12` (stereo not shown) [Example I-513], the IC50 was < 0.1 µM.
`CCc1ccncc1-c1cc(C(=O)N2Cc3cnn(C)c3C2)cc2cc(C3=CCCN(C(=O)CCn4ccnn4)C3)n(CC3CC3)c12` [Example I-727]: the IC50 is < 0.1 µM.
With `CCc1nc(C)ccc1-c1cc(C(=O)N2CCN(c3ncc(F)cc3OC)CC2)cc2cc(C3=CCCN(C(=O)CCc4nccs4)C3)n(CC3CC3)c12` [Example I-523], the IC50 was < 0.1 µM.
Regarding `COc1ccccc1-c1cc(C2=CCCN(C(=O)CCn3ccnn3)C2)c(F)c2[nH]c(C(=O)N3CCC4(CC3)OCCO4)cc12` [Example I-1000], the IC50 is < 0.1 µM.
The same measure for `CCc1ccncc1-c1cc(C2=CCC[C@@H](C(=O)O)C2)c(F)c2[nH]c(C(=O)N3CCN(c4ncc(F)cc4OC)CC3)cc12` (single isomer, unassigned) [Example I-810]: > 100 µM; for `COc1ccccc1-c1cc(C2=CCCN(C(=O)CCn3ccnn3)C2)c(F)c2[nH]c(C(=O)N3Cc4cn(-c5ncccc5OC)cc4C3)cc12` [Example I-417]: < 0.1 µM; for `COc1ccccc1-c1cc(C2=CCCN(C(=O)CCn3ccnn3)C2)c(F)c2[nH]c(C(=O)N3CCC(Nc4ncccn4)CC3)cc12` [Example I-849]: < 0.1 µM.
On to `COc1ccc(F)cc1-c1cc(C2=CCCN(C(=O)CCn3ccnn3)C2)c(F)c2[nH]c(C(=O)N3CCN(c4ncccc4OC)CC3)cc12` [Example I-395], for which the IC50 was > 100 µM.
As for `COc1ccccc1-c1cc(C2=CCCN(C(=O)CCn3ccnn3)C2)c(F)c2[nH]c(C(=O)N3CCNC(=O)CC3)cc12` [Example I-983], the IC50 is < 0.1 µM.
With `COc1cc(F)cnc1N1CCN(C(=O)c2cc3c(-c4ccc5c(c4)OCCCO5)cc(C4=CCCN(C(=O)CCn5ccnn5)C4)c(F)c3[nH]2)CC1` [Example I-1148], the IC50 is < 0.1 µM.
Consider `CN(C)C(=O)c1cc2cc(C3=CCCN(C(=O)CCn4ccnn4)C3)cc(-c3cnn(C)c3)c2o1` [Example I-1077], for which the IC50 is < 0.1 µM.
In the case of `CC(=O)c1ccccc1-c1cc(C2=CCCN(C(C)=O)C2)c(F)c2[nH]c(C(=O)N(C)C)cc12` [Example I-1097], the IC50 was > 100 µM.
Consider `COc1ccncc1-c1cc(C2=CCCN(C(C)=O)C2)c(F)c2[nH]c(C(=O)N3CCN(c4ccccc4OC)CC3)cc12` [Example I-409], for which the IC50 was > 100 µM.
With `CC(=O)N1CCC=C(c2cc(-c3ccc(C)nc3)c3cc(C(=O)N(C)C)[nH]c3c2F)C1` [Example I-885], the IC50 lay in the range of 0.1 to 1 µM.
As for `COc1cc(F)cnc1N1CCN(C(=O)c2cc3c(-c4ccc(C#N)c(C)c4)cc(C4=CCCN(C(=O)CCn5ccnn5)C4)c(F)c3[nH]2)CC1` [Example I-1139], the IC50 is < 0.1 µM.
As to `COc1ccncc1-c1cc(C2=CCCN(C(=O)CCc3nccs3)C2)c(F)c2[nH]c(C(=O)N3CCN(c4ncccc4OC)CC3)cc12` [Example I-497], the IC50 was 10 to 100 µM.
Take `CCc1ccccc1-c1cc(C2=CCCN(C(=O)CCn3ccnn3)C2)c(F)c2[nH]c(C(=O)N3CCN(c4ncccc4OC)CC3)cc12` [Example I-562]: the IC50 was < 0.1 µM.
Take `COc1cc(F)cnc1N1CCN(C(=O)c2cc3c(-c4ccc5c(c4)c(C4CC4)nn5C)cc(C4=CCCN(C(=O)CCn5ccnn5)C4)c(F)c3[nH]2)CC1` [Example I-622]: the IC50 is < 0.1 µM.
As to `CCc1nc(C)ccc1-c1cc(C(=O)N2CCN(c3ncc(F)cc3OC)CC2)cc2cc(C3=CCCN(C(=O)CC(=O)O)C3)n(CC(C)C)c12` [Example I-800], the IC50 was > 100 µM.
As for `COc1ccccc1-c1cc(C2=CCCN(C(=O)CCn3ccnn3)C2)c(F)c2[nH]c(C(=O)N3CCN(c4cc(OC)c5ccnn5c4)CC3)cc12` [Example I-917], the IC50 is < 0.1 µM.
Take `CCOCc1cc(F)ccc1-c1cc(C2=CCCN(C(=O)CCn3ccnn3)C2)c(F)c2[nH]c(C(=O)N3CCN(c4ncc(F)cc4OC)CC3)cc12` [Example I-1125]: the IC50 is < 0.1 µM.
With `CN(C)C(=O)c1cc2cc(C3=CCCN(C(=O)CCn4ccnn4)C3)cc(NCC3CC(F)(F)C3)c2o1` [Example I-873] the figure was < 0.1 µM.
With `COc1ccccc1-c1cc(C2=CCCN(C(=O)CCn3ccnn3)C2)c(F)c2[nH]c(C(=O)N3CCN(c4ncnc5ncn(C)c45)CC3)cc12` [Example I-920] the figure was < 0.1 µM.

One may read the IC50 as the concentration that gives 50% inhibition.
